For experiment [1], the system named is NCI-H460. As to the kind of experiment: Cytotoxicity against human H460 cells assessed as surviving cells after 4 days by MTT assay. It is filed as cell-based.
For experiment [2], the system named is A549. As to the kind of experiment: Cytotoxicity against human A549 cells assessed as surviving cells after 4 days by MTT assay. It counts as cell-based.

With `C/C=C/C(=O)OCC1=CC(O)C(O)C(O)C1=O` (racemic), the values for the half-maximal inhibitory concentration (IC50) in experiment [1] (nci-h460) and in experiment [2] (a549) were 160 µM and 184 µM, respectively.
On the same counts, the results for `C/C=C/C(=O)OCC1=CC(O)C2OC(C)(OC)C(C)(OC)OC2C1=O` (racemic) are 18 µM and 30 µM.
`C/C=C/C(=O)OCC1=CC(O)C2OC(C)(OC)C(C)(OC)OC2C1=O` (single isomer, unassigned; (+)): the IC50 came to 36 µM in experiment [1] (Homo sapiens, NCI-H460, 96 h) and 60 µM in experiment [2] (Homo sapiens, A549, 96 h).
The like results for `C/C=C/C(=O)OCC1=CC(O)C(O)C(O)C1=O` (single isomer, unassigned; (-)) were, in that order, 158 µM and 170 µM.

Values taken from ChEMBL document CHEMBL1140500, “Arene cis-dihydrodiols: useful precursors for the preparation of analogues of the anti-tumour agent, 2-crotonyloxymethyl-(4R,5R,6R)-4,5,6-trihydroxycyclohex-2-enone (COTC)” (Bioorg Med Chem Lett, 2007).
